ChEMBL document CHEMBL1158793, “Taxezopidines M and N, taxoids from the Japanese yew, Taxus cuspidata” (J Nat Prod, 2005)
The source made the active and inactive calls. No cut-off for these calls is given here.

Assays:
KB = assay: Cytotoxicity against human KB cells at 10 ug/ml; type: functional, cell-based
L1210 = assay: Cytotoxicity against mouse L1210 cells at 10 ug/ml; type: functional, cell-based
[1] = Inhibition of CaCl2-microtubule depolymerization at 50 uM by spectrophotometry
[2] = Inhibition of CaCl2-induced microtubule depolymerization at 5 uM by spectrophotometry

| Activity [1] | Activity [2] | Structure (SMILES) | Activity (KB) | Activity (L1210) |
| --- | --- | --- | --- | --- |
| Active |  | C=C1[C@@H](OC(=O)C[C@H](c2ccccc2)N(C)C)CC[C@@]2(C)[C@@H](OC(C)=O)[C@H](OC(C)=O)C3=C(C)[C@]4(O)C[C@@H]([C@@H](OC(C)=O)[C@H]12)[C@@]3(C)CO4 | inactive | inactive |
|  |  | C=C1[C@@H](OC(=O)C[C@H](c2ccccc2)N(C)C)C[C@H](OC(C)=O)[C@@]2(C)[C@@H](OC(C)=O)[C@H](OC(C)=O)[C@]3(O)[C@@]4(C)CO[C@]3(C)C(=O)C[C@H]4[C@@H](OC(C)=O)[C@H]12 | inactive | inactive |
|  | Active | CC(=O)O[C@H]1C(=O)[C@@]2(C)[C@H]([C@H](OC(=O)c3ccccc3)[C@]3(O)C[C@H](OC(=O)[C@H](O)[C@@H](NC(=O)c4ccccc4)c4ccccc4)C(C)=C1C3(C)C)[C@]1(OC(C)=O)CO[C@@H]1C[C@@H]2O |  |  |
